{"source": "paper PMC6506541", "about": "“A Bio-inspired Hypoxia Sensor using HIF1a-Oxygen-Dependent Degradation Domain” (Scientific Reports, 2019)", "format_in_all_cases": "cell-based, Human", "key": {"proteasome": {"test_system": "proteasome", "assay": "Sensor degradation under proteasome inhibitor MG-132", "conditions": "MDA-MB 231 cells; MG-132 20 μM or 40 μM, 6 h, after pre-treatment with probe", "experimental": "(§1) Human breast cancer cells MDA-MB 231 were maintained at 37 °C and 5% CO2 in RPMI-1640 (Sigma–Aldrich), supplemented with 10% fetal bovine serum (Fisher Scientific). Cells were seeded at a density of 2·10^5 cells per well in 6-multiwell plates 24 h prior treatment. For hypoxia induction, they were treated with either CoCl2 (Sigma–Aldrich) at a final concentration of 500 μM, or L-Mimosine (Sigma–Aldrich) at a final concentration of 800 μM. Treatment with each peptidic sensor (500 ng/mL) was carried out in the presence of the aforementioned inhibitors. After three hours of incubation, supernatants containing the probes and either CoCl2 or L-Mimosine were aspirated, cells were washed once with PBS 1X and fresh medium, containing again either CoCl2 or L-Mimosine, was added to the cells for an extended incubation of three hours. Treatment with proteasome inhibitor MG-132 (Sigma-Aldrich) was carried out for 6 hours at final concentrations of either 20 μM or 40 μM, upon pre-treatment of the cells with the probes, as described previously. Fluorescent probes internalization was quantified using ImageJ (NIH). Quantified fluorescence was expressed as values of corrected total cell fluorescence (CTCF), which was calculated using the formula CTCF = integrated density – (area of selected cell × mean fluorescence of background readings)[44]."}, "MDA-MB 231 cells": {"test_system": "MDA-MB 231 cells", "assay": "Sensor stabilization by hypoxia-mimetic agents, fluorescence microscopy", "conditions": "sensor 500 ng/mL, CoCl2 500 μM or L-Mimosine 800 μM vs vehicle, 3 h incubation, wash, further 3 h", "experimental": "as §1"}, "HA-tagged ubiquitin": {"test_system": "HA-tagged ubiquitin", "assay": "Immunoprecipitation of HA-tagged ubiquitinated sensor", "conditions": "MDA-MB 231 cells transfected with pcDNA3-Ub-HA; 5 h with sensor; anti-HA immunoprecipitation; IVIS fluorescence", "experimental": "MDA-MB 231 cells were seeded at a density of 2·10^5 cells per well in 6-multiwell plates twenty-four hours prior transfection. Each well was transfected with 2 μg of either pcDNA3-Ub-HA or empty vector pcDNA3 (Invitrogen) using Superfect (Qiagen) as transfection reagent. Twenty-four hours upon transfection culture medium was removed, cells were washed carefully with phosphate buffered saline (PBS; Sigma-Aldrich) and fresh culture medium containing the peptidic sensor 1 was added onto the cells. PBS was used as mock treatment. Five hours upon treatment with the sensor, cells were lysed in native immunoprecipitation buffer, 20 mM Tris·HCl pH 8, 137 mM NaCl,10% glycerol,1% Nonidet P-40 (NP-40), 2 mM EDTA, containing the protease inhibitors sodium orthovanadate (1 mM), PMSF (2 mM) and aprotinin (1 μg/mL) (Sigma-Aldrich). Each immunoprecipitation contained 600 μg of whole protein extract and were incubated overnight with 5 μg of anti-hemagglutinin HA.11 (Clone 16B12) antibody (Abcam) at 4 °C. Equal amounts of rabbit immunoglobulins (Sigma-Aldrich) were used as control. HA-tagged ubiquitins were immunoprecipitated using Protein G-coupled agarose (Santa Cruz), subsequently washed with immunoprecipitation buffer and eluted under native conditions. Fluorescence images were taken using an IVIS Spectrum system (Perkin-Elmer)."}}, "data": [{"sequence": "LDLEMLAPYIPMDDDFQL [compound 1, 5(6)-ROX-labelled HIF-1α ODD domain peptide (Leu557-Leu574) linked to octa-arginine by O2Oc PEG linkers]", "values": [{"measurement": "effect of proteasome inhibitor MG-132 on degradation of sensor fluorescent signal", "setting": "proteasome", "result": "dose-dependent effect on proteasome degradation of fluorescent signal"}, {"measurement": "stabilization of sensor fluorescence (inhibition of sensor degradation) by hypoxia mimetics", "setting": "MDA-MB 231 cells", "result": "stabilized in the presence of both molecules that mimic hypoxia"}, {"measurement": "ubiquitination of sensor (enrichment by HA immunoprecipitation)", "setting": "HA-tagged ubiquitin", "result": "degradation of the sensor is ubiquitin proteasome-regulated"}]}]}
